{
  "source": "patent US20240148821A1",
  "about": "“PHARMACEUTICAL USE OF CYCLIC PEPTIDE COMPOUND” (CHUGAI SEIYAKU KABUSHIKI KAISHA, priority 2021, published 2024)",
  "key": {"[1]": {"biological_target": "protein-protein interaction between Kras and SOS1 (biotin-tagged human Kras loaded with GDP, His-tagged human SOS1) (Homo sapiens (Human), UniProt P01116, G12D)", "assay": "Protein-protein interaction inhibition between Kras and SOS1 (KrasG12D-SOS PPI) using AlphaScreen;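 further: kras produced in E. coli, Ni-coupled donor beads and streptavidin acceptor beads, excitation 680 nm with emission detected at 520–620 nm via singlet oxygen transfer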", "type": "biochemical", "conditions": "AlphaScreen; biotin-tagged human Kras loaded with GDP, His-tagged human SOS1; read-out: KRAS G12D-SOS PPI IC50"}, "[2]": {"tested_on": "Human pancreatic cancer cell line AsPC-1 (G12D mutation Kras)", "assay": "AsPC-1 cell growth inhibition (AsPC-1 CGI)", "type": "cell-based", "conditions": "read-out: AsPC-1 cell growth inhibition, 50% growth inhibitory concentration (IC50 value); 96 hours, CellTiter-Glo, values classified in ranges", "description": "Test compounds were serially dilated with dimethyl sulfoxide, and 200 nL was then dispensed to a U-bottom 96-well plate using Labcyte Echo. […] The cell suspension was dispensed to a. plate containing a test compound at 100 μL per well and incubated at 37° C. in a 5% carbon dioxide gas incubator. 96 hours later, 80 μL of CellTiter-Glo (Promega) was added to each well and fluorescence was measured."}},
  "note": "Bridge positions count the residues as written; N and C are the ends. Square brackets hold non-standard residues; d marks the D form. Peptide text beside a SMILES is read from it. * marks the point of attachment. hPhe(3,5-F2-4-CF3) = N[C@@H](CCc1cc(F)c(C(F)(F)F)c(F)c1)C(=O)O; hPhe(3-Cl-4-CF3) = N[C@@H](CCc1ccc(C(F)(F)F)c(Cl)c1)C(=O)O; NMePhe(4-CF3) = CN[C@@H](Cc1ccc(C(F)(F)F)cc1)C(=O)O; 3Oxa8azabicyclo(3.2.1)octane = C1CC2COCC1N2*; NEtPhe(4-Me) = CCN[C@@H](Cc1ccc(C)cc1)C(=O)O; NMePhe(4-Me) = CN[C@@H](Cc1ccc(C)cc1)C(=O)O; NMeGly(cPent) = CN[C@H](C(=O)O)C1CCCC1; NMeCha = CN[C@@H](CC1CCCCC1)C(=O)O; Hyp = O=C(O)[C@@H]1C[C@@H](O)CN1; NEtLeu = CCN[C@@H](CC(C)C)C(=O)O; NMeI = CC[C@H](C)[C@H](NC)C(=O)O; NMeD = CN[C@@H](CC(=O)O)C(=O)O; NMeL = CN[C@@H](CC(C)C)C(=O)O; NMeV = CN[C@H](C(=O)O)C(C)C; d(β3hA) = C[C@@H](N)CC(=O)O; Morpholide = C1CN(*)CCO1; NMeA = CN[C@@H](C)C(=O)O; Piperidide = C1CCN(*)CC1; Pyrrolidide = C1CCN(*)C1; Ac5c = NC1(C(=O)O)CCCC1; Aze = O=C(O)[C@@H]1CCN1; Sar = CNCC(=O)O",
  "data": [
    {"smiles": "CC[C@H](C)[C@@H]1NC(=O)[C@H](CC(C)C)N(CC)C(=O)C[C@@H](C(=O)N2CCOCC2)N(C)C(=O)[C@H](C2CCCC2)N(C)C(=O)C2(CCCC2)NC(=O)[C@@H]2CCCN2C(=O)[C@H](CCc2ccc(C(F)(F)F)c(Cl)c2)NC(=O)CN(C)C(=O)[C@H](C2CCCC2)N(C)C(=O)[C@@H]2CCN2C(=O)[C@H](C)N(C)C1=O", "note": "[Compound 1208] ([NEtLeu]I[NMeA][Aze][NMeGly(cPent)][Sar][hPhe(3-Cl-4-CF3)]P[Ac5c][NMeGly(cPent)][NMeD]-Morpholide; lactam N-11)", "values": [
      {"measurement": "IC50", "setting": "[1]", "value": 0.00069, "unit": "µM"},
      {"measurement": "IC50", "setting": "[2]", "value": "≤ 0.02", "unit": "µM"}
    ]},
    {"smiles": "CC[C@H](C)[C@@H]1NC(=O)[C@H](CC(C)C)N(C)C(=O)C[C@@H](C(=O)N2CCOCC2)N(C)C(=O)[C@H]([C@@H](C)CC)N(C)C(=O)C2(CCCC2)NC(=O)[C@@H]2CCCN2C(=O)[C@H](CCc2cc(F)c(C(F)(F)F)c(F)c2)NC(=O)CN(C)C(=O)[C@H](Cc2ccc(C)cc2)N(CC)C(=O)[C@@H]2CCN2C(=O)[C@H](C)N(C)C1=O", "note": "[Compound 1209] ([NMeL]I[NMeA][Aze][NEtPhe(4-Me)][Sar][hPhe(3,5-F2-4-CF3)]P[Ac5c][NMeI][NMeD]-Morpholide; lactam N-11)", "values": [
      {"measurement": "IC50", "setting": "[1]", "value": 0.00085, "unit": "µM"},
      {"measurement": "IC50", "setting": "[2]", "value": "≤ 0.02", "unit": "µM"}
    ]},
    {"smiles": "CCO[C@@H]1C[C@H]2C(=O)NC3(CCCC3)C(=O)N(C)[C@@H]([C@@H](C)CC)C(=O)N(C)[C@H](C(=O)N3CCCC3)CC(=O)N(C)[C@@H](CC(C)C)C(=O)N[C@@H]([C@@H](C)CC)C(=O)N(C)[C@@H](C)C(=O)N3CC[C@H]3C(=O)N(C)[C@@H](Cc3ccc(C(F)(F)F)cc3)C(=O)N(C)CC(=O)N[C@@H](CCc3cc(F)c(C(F)(F)F)c(F)c3)C(=O)N2C1", "note": "[Compound 1210] ([NMeL]I[NMeA][Aze][NMePhe(4-CF3)][Sar][hPhe(3,5-F2-4-CF3)][Hyp](Et)[Ac5c][NMeI][NMeD]-Pyrrolidide; lactam N-11)", "values": [
      {"measurement": "IC50", "setting": "[1]", "value": 0.00074, "unit": "µM"},
      {"measurement": "IC50", "setting": "[2]", "value": "≤ 0.02", "unit": "µM"}
    ]},
    {"smiles": "CC[C@H](C)[C@@H]1NC(=O)[C@H](CC(C)C)N(C)C(=O)C[C@@H](C(=O)N2CCCCC2)N(C)C(=O)[C@H](C(C)C)N(C)C(=O)[C@H](C)NC(=O)[C@@H]2CCCN2C(=O)[C@H](CCc2ccc(C(F)(F)F)c(Cl)c2)NC(=O)CN(C)C(=O)[C@H](CC2CCCCC2)N(C)C(=O)[C@@H]2CCN2C(=O)[C@H](C)N(C)C1=O", "note": "[Compound 1211] ([NMeL]I[NMeA][Aze][NMeCha][Sar][hPhe(3-Cl-4-CF3)]PA[NMeV][NMeD]-Piperidide; lactam N-11)", "values": [
      {"measurement": "IC50", "setting": "[1]", "value": 0.031, "unit": "µM"},
      {"measurement": "IC50", "setting": "[2]", "value": "> 0.5", "unit": "µM"}
    ]},
    {"smiles": "CC[C@H](C)[C@@H]1NC(=O)[C@H](CC(C)C)N(C)C(=O)C[C@@H](C(=O)N2C3CCC2COC3)NC(=O)[C@H](C(C)C)N(C)C(=O)C2(CCCC2)NC(=O)[C@@H]2CCCN2C(=O)[C@H](CCc2ccc(C(F)(F)F)c(Cl)c2)NC(=O)CN(C)C(=O)[C@H](CC2CCCCC2)N(C)C(=O)[C@@H]2CCN2C(=O)[C@H](C)N(C)C1=O", "note": "[Compound 1214] ([NMeL]I[NMeA][Aze][NMeCha][Sar][hPhe(3-Cl-4-CF3)]P[Ac5c][NMeV]D-{3Oxa8azabicyclo(3.2.1)octane}; lactam N-11)", "values": [
      {"measurement": "IC50", "setting": "[1]", "value": 0.077, "unit": "µM"},
      {"measurement": "IC50", "setting": "[2]", "value": "> 0.5", "unit": "µM"}
    ]},
    {"smiles": "CC[C@H](C)[C@@H]1NC(=O)[C@H](CC(C)C)N(CC)C(=O)C[C@@H](C(=O)N2CCOCC2)N(C)C(=O)[C@H](C2CCCC2)N(C)C(=O)C2(CCCC2)NC(=O)[C@@H]2CCCN2C(=O)[C@H](CCc2ccc(C(F)(F)F)c(Cl)c2)NC(=O)CN(C)C(=O)[C@H](CC2CCCCC2)N(C)C(=O)[C@@H]2CCN2C(=O)[C@H](C)N(C)C1=O", "note": "[Compound 1220] ([NEtLeu]I[NMeA][Aze][NMeCha][Sar][hPhe(3-Cl-4-CF3)]P[Ac5c][NMeGly(cPent)][NMeD]-Morpholide; lactam N-11)", "values": [
      {"measurement": "IC50", "setting": "[1]", "value": 0.00064, "unit": "µM"},
      {"measurement": "IC50", "setting": "[2]", "value": "≤ 0.02", "unit": "µM"}
    ]},
    {"smiles": "CC[C@H](C)[C@@H]1NC(=O)[C@H](CC(C)C)N(C)C(=O)C[C@@H](C)NC(=O)[C@H](C2CCCC2)N(C)C(=O)[C@@H](C)NC(=O)[C@@H]2CCCN2C(=O)[C@H](CCc2ccc(C(F)(F)F)c(Cl)c2)NC(=O)CN(C)C(=O)[C@H](Cc2ccc(C)cc2)N(C)C(=O)[C@@H]2CCN2C(=O)[C@H](C)N(C)C1=O", "note": "[Compound 1222] (cyclo([Aze][NMePhe(4-Me)][Sar][hPhe(3-Cl-4-CF3)]P[dA][NMeGly(cPent)][d(β3hA)][NMeL]I[NMeA]))", "values": [
      {"measurement": "IC50", "setting": "[1]", "value": 0.025, "unit": "µM"},
      {"measurement": "IC50", "setting": "[2]", "value": "> 0.5", "unit": "µM"}
    ]}
  ]
}
